Results taken from paper PMC5446859 (2017).

Tested on: DNAzyme-aptamer (DNA, aptamer) TGGGTAGGGCGGGTTGGGAAAGTTGGGCACGTGTTGTCTCTCTGTGTCTCGTGCCCTTCGCTAGGCCCAC
Experiment: peroxidase activity (TMB), blocker hybridization
Settings: 120 mM NaCl, 5 mM KCl, 2.5 mM MgCl2; 10 mM Tris-HCl pH 8; hemin prevents hybridization of blocker; qualitative, indirect

SMILES: C=CC1=C(C)C2=Cc3c(C=C)c(C)c4[n]3[Fe]([Cl])[n]3c(c(C)c(CCC(=O)O)c3=CC3=NC(=C4)C(C)=C3CCC(=O)O)=CC1=N2
- binding: yes
